The nature of series [1]: Particle surface area (BET method). The conditions noted are these: precipitated or ground glibenclamide product. The format is physicochemical.
Series [2] can be described thus: Solubility of glibenclamide in water. The format is physicochemical.
The subject of another series is blood sugar. As to conditions: cited from earlier work.

Regarding `COc1ccc(Cl)cc1C(=O)NCCc1ccc(S(=O)(=O)NC(=O)NC2CCCCC2)cc1` [Example 1, glibenclamide], the particle surface area in series [1] turned out to be 5.79 m^2 /g.

Regarding `COc1ccc(Cl)cc1C(=O)NCCc1ccc(S(=O)(=O)NC(=O)NC2CCCCC2)cc1` [Example 2, glibenclamide], the particle surface area in series [1] was determined as 9.8 m^2 /g. Still for that read-out and setting: the value for `COc1ccc(Cl)cc1C(=O)NCCc1ccc(S(=O)(=O)NC(=O)NC2CCCCC2)cc1` [Example 3, glibenclamide] was 6.0 m^2 /g; that for `COc1ccc(Cl)cc1C(=O)NCCc1ccc(S(=O)(=O)NC(=O)NC2CCCCC2)cc1` [Example 4, glibenclamide] was 6.8 m^2 /g.

`COc1ccc(Cl)cc1C(=O)NCCc1ccc(S(=O)(=O)NC(=O)NC2CCCCC2)cc1` [Example 5, glibenclamide] yielded a particle surface area in series [1] of 10.3 m^2 /g. In the case of `COc1ccc(Cl)cc1C(=O)NCCc1ccc(S(=O)(=O)NC(=O)NC2CCCCC2)cc1` [Example 6, glibenclamide], the particle surface area in series [1] is on record as 5.2 m^2 /g. Still for that read-out and setting: then `COc1ccc(Cl)cc1C(=O)NCCc1ccc(S(=O)(=O)NC(=O)NC2CCCCC2)cc1` [Example 7, glibenclamide], with 7.8 m^2 /g; and `COc1ccc(Cl)cc1C(=O)NCCc1ccc(S(=O)(=O)NC(=O)NC2CCCCC2)cc1` [Example 8, glibenclamide], with 5.8 m^2 /g. Take `COc1ccc(Cl)cc1C(=O)NCCc1ccc(S(=O)(=O)NC(=O)NC2CCCCC2)cc1` [glibenclamide, N-4-[2-(5-chloro-2-methoxybenzamido)-ethyl]-phenyl-sulfonyl-N'-cyclohexylurea]: the “solubility in water, pH of minimum” value in series [2] was “reaches a minimum at a pH of 4”. Moreover, the “blood sugar lowering action” value in the series on blood sugar (among sulfonylurea derivatives) is on record as “greatest hitherto known blood sugar lowering action”. In the series with blood sugar (in vivo), the side effects result is reported as “lowest degree of side effects”.

The values are drawn from patent publication US4060634A (Boehringer Mannheim G.m.b.H., priority 1973, dated 1977).
